Data from patent US8338565B2, “Macrocyclic compounds for inhibition of tumor necrosis factor alpha” (Ensemble Therapeutics Corporation, priority 2008, dated 2012).
Read-outs that look alike come from different tables or passages of the source. Numbered stars: 1 amine (or outer) side, 2 acyl side, 3 side chain; on linkers, the order of the positions; unused ones are H or OH. Bridge positions count the residues as written; N and C are the ends. Square brackets hold non-standard residues; d marks the D form. Peptide text beside a SMILES is read from it. * marks the point of attachment. Bip = N[C@@H](Cc1ccc(-c2ccccc2)cc1)C(=O)O; Phe(4-NH2) = Nc1ccc(C[C@H](N)C(=O)O)cc1; d(hPhe) = N[C@H](CCc1ccccc1)C(=O)O; d2Thi = N[C@H](Cc1cccs1)C(=O)O; Suc = O=C(CCC(=O)[*:2])[*:1]; NHCH2SO3H = O=S(=O)(O)CN*; GABA = NCCCC(=O)O

Target: T1, TNFα / TNFα receptor (TNFα R1/Fc) (Homo sapiens, UniProt P01375)
T1 construct: purchased R&D Systems
T1 sequence (P01375 77-233 limits assumed, species assumed): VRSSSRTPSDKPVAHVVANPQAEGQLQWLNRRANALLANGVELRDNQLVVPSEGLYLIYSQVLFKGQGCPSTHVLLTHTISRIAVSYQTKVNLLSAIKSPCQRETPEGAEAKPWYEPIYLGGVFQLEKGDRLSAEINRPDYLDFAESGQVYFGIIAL
Assay: Inhibition of binding of TNFα to the TNFα receptor (plate ELISA competition)
Details: Table 2
Method in brief: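 Plates were coated with TNFα at 15 nM. Test compound and 8.33 nM receptor-Fc (PBST, 2% DMSO) were first mixed in solution for 30 min at room temperature, then transferred to the plates for another 30 min. Competition was read by absorbance at 450 nm after HRP anti-human IgG Fc detection with TMB.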

[1] = read-out: Activity (IC50, inhibition of TNFα binding to TNFα R1/Fc)
[2] = Activity (IC50, inhibition of TNFα binding to TNFα R1/Fc)

| SMILES | IC50 [1] [µM] | IC50 [2] [µM] |
| --- | --- | --- |
| CC(=O)Nc1ccc(C[C@H](NC(=O)[C@@H]2Cc3ccc(cc3)NC(=O)CCC(=O)N[C@H](CCc3ccccc3)C(=O)N[C@@H](Cc3ccc(-c4ccccc4)cc3)C(=O)N[C@H](Cc3ccccc3)C(=O)N2)C(=O)O)cc1 [Compound 528] ([d(hPhe)][Bip][dF][Phe(4-NH2)][Phe(4-NH2)](Ac)-OH; linker N-4 via Suc) | < 10 |  |
| O=C1COc2ccc(cc2)C[C@@H](C(=O)O)NC(=O)[C@@H](Cc2ccc(-c3ccccc3)cc2)NC(=O)[C@H](Cc2ccc(-c3ccccc3)cc2)NC(=O)[C@@H](Cc2cccs2)N1 [Compound 530] | > 100 |  |
| O=C1COc2ccc(cc2)C[C@@H](C(=O)O)NC(=O)[C@@H](Cc2ccc(C(F)(F)F)cc2)NC(=O)[C@H](Cc2ccc(-c3ccccc3)cc2)NC(=O)[C@@H](Cc2cccs2)N1 [Compound 531] | > 100 |  |
| O=C1COc2ccc(cc2)C[C@@H](C(=O)O)NC(=O)[C@@H](Cc2ccc(F)cc2)NC(=O)[C@H](Cc2ccc(-c3ccccc3)cc2)NC(=O)[C@@H](Cc2cccs2)N1 [Compound 532] | > 100 |  |
| O=C1COc2ccc(cc2)C[C@@H](C(=O)O)NC(=O)[C@@H](Cc2ccc(O)cc2)NC(=O)[C@H](Cc2ccc(-c3ccccc3)cc2)NC(=O)[C@@H](Cc2cccs2)N1 [Compound 534] | > 100 |  |
| COc1ccc(C[C@H]2NC(=O)[C@H](Cc3ccc(-c4ccccc4)cc3)NC(=O)[C@@H](Cc3cccs3)NC(=O)COc3ccc(cc3)C[C@@H](C(=O)O)NC2=O)cc1 [Compound 535] | > 100 |  |
| O=C1COc2ccc(cc2)C[C@@H](C(=O)O)NC(=O)[C@@H](Cc2ccncc2)NC(=O)[C@H](Cc2ccc(-c3ccccc3)cc2)NC(=O)[C@@H](Cc2cccs2)N1 [Compound 536] | < 10 |  |
| O=C1COc2ccc(cc2)C[C@@H](C(=O)O)NC(=O)[C@@H](Cc2cccs2)NC(=O)[C@H](Cc2ccc(-c3ccccc3)cc2)NC(=O)[C@@H](Cc2cccs2)N1 [Compound 538] | > 100 |  |
| O=C1COc2ccc(cc2)C[C@@H](C(=O)O)NC(=O)[C@@H](CCc2ccccc2)NC(=O)[C@H](Cc2ccc(Br)cc2)NC(=O)[C@@H](Cc2cccs2)N1 [Compound 539] | > 100 |  |
| O=C1CCC(=O)N[C@H](CCc2ccccc2)C(=O)N[C@@H](Cc2ccc(-c3ccccc3)cc2)C(=O)N[C@H](Cc2ccccc2)C(=O)N[C@H](C(=O)N[C@@H](Cc2ccccc2)C(=O)NCS(=O)(=O)O)Cc2ccc(cc2)N1 [Compound 542] ([d(hPhe)][Bip][dF][Phe(4-NH2)]F-NHCH2SO3H; linker N-4 via Suc) | < 10 |  |
| O=C1CCC(=O)N[C@H](CCc2ccccc2)C(=O)N[C@@H](Cc2ccc(-c3ccccc3)cc2)C(=O)N[C@H](Cc2ccccc2)C(=O)N[C@H](C(=O)O)Cc2ccc(cn2)N1 [Compound 546] | < 10 |  |
| O=C1CCC(=O)N[C@H](Cc2cccs2)C(=O)N[C@@H](Cc2ccc(-c3ccccc3)cc2)C(=O)N[C@H](Cc2ccccc2)C(=O)Nc2ccc(cc2)C[C@@H](C(=O)O)N1 [Compound 549] | > 100 |  |
| O=C1CCC(=O)N[C@H](CCc2ccccc2)C(=O)N[C@@H](Cc2ccc(-c3ccccc3)cc2)C(=O)N[C@H](Cc2ccccc2)C(=O)Nc2ccc(cc2)C[C@@H](C(=O)O)N1 [Compound 550] | 30 to 100 |  |
| O=C1CCC(=O)N[C@H](Cc2cccs2)C(=O)N[C@@H](Cc2ccc(-c3ccccc3)cc2)C(=O)N[C@H](CCc2ccccc2)C(=O)Nc2ccc(cc2)C[C@@H](C(=O)O)N1 [Compound 551] | 30 to 100 |  |
| O=C1CCC(=O)N[C@H](CCc2ccccc2)C(=O)N[C@@H](Cc2ccc(C(F)(F)F)cc2)C(=O)N[C@H](Cc2ccccc2)C(=O)Nc2ccc(cc2)C[C@@H](C(=O)O)N1 [Compound 552] | 10 to 30 |  |
| O=C1COc2ccc(cc2)C[C@@H](C(=O)N[C@H](Cc2ccccc2)C(=O)O)NC(=O)[C@H](CCc2ccccc2)NC(=O)[C@@H](Cc2ccc(-c3ccccc3)cc2)NC(=O)[C@H](Cc2ccncc2)N1 [Compound 553] |  | < 10 |
| O=C1COc2ccc(cc2)C[C@@H](C(=O)N[C@@H](Cc2ccccc2)C(=O)O)NC(=O)[C@H](CCc2ccccc2)NC(=O)[C@@H](Cc2ccc(-c3ccccc3)cc2)NC(=O)[C@H](Cc2ccncc2)N1 [Compound 554] |  | < 10 |
| O=C1COc2ccc(cc2)C[C@@H](C(=O)N[C@H](CO)C(=O)O)NC(=O)[C@H](CCc2ccccc2)NC(=O)[C@@H](Cc2ccc(-c3ccccc3)cc2)NC(=O)[C@H](Cc2ccncc2)N1 [Compound 555] |  | < 10 |
| O=C1COc2ccc(cc2)C[C@@H](C(=O)N[C@@H](CO)C(=O)O)NC(=O)[C@H](CCc2ccccc2)NC(=O)[C@@H](Cc2ccc(-c3ccccc3)cc2)NC(=O)[C@H](Cc2ccncc2)N1 [Compound 556] |  | < 10 |
| C[C@@H](NC(=O)[C@@H]1Cc2ccc(cc2)OCC(=O)N[C@@H](Cc2ccncc2)C(=O)N[C@H](Cc2ccc(-c3ccccc3)cc2)C(=O)N[C@@H](CCc2ccccc2)C(=O)N1)C(=O)O [Compound 557] | < 10 |  |
| O=C(O)CNC(=O)[C@@H]1Cc2ccc(cc2)OCC(=O)N[C@@H](Cc2ccncc2)C(=O)N[C@H](Cc2ccc(-c3ccccc3)cc2)C(=O)N[C@@H](CCc2ccccc2)C(=O)N1 [Compound 558] | < 10 |  |

Second part, led by results:

| IC50 [1] [µM] | SMILES | IC50 [2] [µM] |
| --- | --- | --- |
| > 100 | NCCCC(=O)N[C@H]1CC(=O)Nc2ccc(cc2)C[C@@H](C(=O)N[C@@H](Cc2ccccc2)C(=O)O)NC(=O)[C@@H](Cc2ccccc2)NC(=O)[C@H](Cc2ccc(-c3ccccc3)cc2)NC(=O)[C@@H](Cc2cccs2)NC1=O [Compound 529] (H-[GABA]D[d2Thi][Bip][dF][Phe(4-NH2)]F-OH; lactam 2-6) |  |
| > 100 | O=C1COc2ccc(cc2)C[C@@H](C(=O)O)NC(=O)[C@@H](Cc2cccc(C(F)(F)F)c2)NC(=O)[C@H](Cc2ccc(-c3ccccc3)cc2)NC(=O)[C@@H](Cc2cccs2)N1 [Compound 533] |  |
| > 100 | O=C1COc2ccc(cc2)C[C@@H](C(=O)O)NC(=O)[C@@H](C/C=C/c2ccccc2)NC(=O)[C@H](Cc2ccc(-c3ccccc3)cc2)NC(=O)[C@@H](Cc2cccs2)N1 [Compound 537] |  |
| > 100 | COc1ccc(C[C@@H]2NC(=O)[C@@H](Cc3cccs3)NC(=O)COc3ccc(cc3)C[C@@H](C(=O)O)NC(=O)[C@@H](CCc3ccccc3)NC2=O)cc1OC [Compound 540] |  |
| > 100 | O=C1COc2ccc(cc2)C[C@@H](C(=O)O)NC(=O)[C@@H](CCc2ccccc2)NC(=O)[C@H](Cc2ccc([N+](=O)[O-])cc2)NC(=O)[C@@H](Cc2cccs2)N1 [Compound 541] |  |
| > 100 | O=C1CCCc2cn(nn2)C[C@@H](C(=O)O)NC(=O)[C@@H](Cc2ccccc2)NC(=O)[C@H](Cc2ccc(C(F)(F)F)cc2)NC(=O)[C@@H](CCc2ccccc2)N1 [Compound 543] |  |
| < 10 | O=C1CCCCc2cn(nn2)C[C@@H](C(=O)O)NC(=O)[C@@H](CCc2ccccc2)NC(=O)[C@H](Cc2ccc(-c3ccccc3)cc2)NC(=O)[C@@H](Cc2cccs2)N1 [Compound 544] |  |
| 10 to 30 | O=C1CCC(=O)N[C@H](Cc2cccs2)C(=O)N[C@@H](Cc2ccc(-c3ccccc3)cc2)C(=O)N[C@H](Cc2ccccc2)C(=O)N[C@H](C(=O)O)Cc2ccc(cn2)N1 [Compound 545] |  |
| < 10 | O=C1CCC(=O)N[C@H](Cc2cccs2)C(=O)N[C@@H](Cc2ccc(-c3ccccc3)cc2)C(=O)N[C@H](CCc2ccccc2)C(=O)N[C@H](C(=O)O)Cc2ccc(cn2)N1 [Compound 547] |  |
| 30 to 100 | O=C1CCC(=O)N[C@H](CCc2ccccc2)C(=O)N[C@@H](Cc2ccc(C(F)(F)F)cc2)C(=O)N[C@H](Cc2ccccc2)C(=O)N[C@H](C(=O)O)Cc2ccc(cn2)N1 [Compound 548] |  |
